Data taken from patent publication US7425640B2, “Substituted 5-carboxyamide pyrazoles and [1,2,4]triazoles as antiviral agents” (priority 2004, dated 2008).

target: HCV RNA-dependent RNA polymerase NS5B (Δ21) (Hepatitis C virus genotype 1b, UniProt P26663); experiment: Assay for HCV RNA-dependent RNA polymerase activity (SPA, [3H]-GTP incorporation); format: biochemical; details: read-out: Δ21 Activity (IC50 μM); 50 nM NS5B (Δ21), class symbols
Outline: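 NS5B (Δ21), 50 nM, was incubated 3 h at room temperature with biotinylated oligoG12/polyC template, 5 μM GTP plus [3H]-GTP, in HEPES pH 7.3 with MgCl2 and NaCl. [3H]-GTP incorporation was read by streptavidin SPA. IC50 came from single experiments across 11 two-fold dilutions (0.05–50 μM).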

Chain of HCV RNA-dependent RNA polymerase NS5B (Δ21) (P26663 2420-2989, stated change not applied): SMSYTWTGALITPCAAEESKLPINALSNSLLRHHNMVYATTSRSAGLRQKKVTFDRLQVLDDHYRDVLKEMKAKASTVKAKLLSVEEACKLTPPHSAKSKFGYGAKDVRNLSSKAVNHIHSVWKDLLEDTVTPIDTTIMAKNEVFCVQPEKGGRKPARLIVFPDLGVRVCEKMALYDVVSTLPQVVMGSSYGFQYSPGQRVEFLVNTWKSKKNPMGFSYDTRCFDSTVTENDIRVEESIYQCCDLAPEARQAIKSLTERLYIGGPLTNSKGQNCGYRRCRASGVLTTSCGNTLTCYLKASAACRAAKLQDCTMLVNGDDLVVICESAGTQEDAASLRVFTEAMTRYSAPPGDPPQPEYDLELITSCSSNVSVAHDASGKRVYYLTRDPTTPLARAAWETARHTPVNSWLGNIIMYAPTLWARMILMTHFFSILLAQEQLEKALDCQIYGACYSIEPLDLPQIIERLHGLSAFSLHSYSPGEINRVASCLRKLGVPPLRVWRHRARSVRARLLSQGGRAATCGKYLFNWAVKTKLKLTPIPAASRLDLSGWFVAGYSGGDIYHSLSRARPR

Question: Which IC50 does the source give for O=C(Cn1nc(C(=O)Nc2ccccc2)cc1C(=O)N[C@H]1CCCC[C@@H]1OCc1ccccc1)N[C@H]1CCCC[C@@H]1OCc1ccccc1 [Compound 54] here?
Answer: 0.1 to 1 µM

Question: With Cc1ccc(OCC2CC2)c(NC(=O)c2cc(C(=O)O)nn2CC(=O)N[C@H]2CCCC[C@@H]2OCc2ccccc2)c1 [Compound 76] as the compound, how does the IC50 read?
Answer: 0.1 to 1 µM

Question: Which IC50 does the source give for CN(C)c1cccc2c(S(=O)(=O)NCCNC(=O)c3cc(C(=O)N[C@H]4CCCC[C@@H]4OCc4ccccc4)n(CC(=O)N[C@H]4CCCC[C@@H]4OCc4ccccc4)n3)cccc12 [Compound 64] here?
Answer: 0.1 to 1 µM

Question: How did the IC50 turn out when CC(C)CNC(=O)c1cc(C(=O)N[C@H]2CCCC[C@@H]2OCc2ccccc2)n(CC(=O)N[C@H]2CCCC[C@@H]2OCc2ccccc2)n1 [Compound 77] was run?
Answer: 0.1 to 1 µM

Question: With O=C(Cn1nc(C(=O)NOCC2CC2)cc1C(=O)N[C@H]1CCCC[C@@H]1OCc1ccccc1)N[C@H]1CCCC[C@@H]1OCc1ccccc1 [Compound 72] as the compound, how does the IC50 read?
Answer: 0.1 to 1 µM

Question: Which IC50 does the source give for Cc1ccc(OCC2CC2)c(NC(=O)Cn2nc(C(=O)O)cc2C(=O)N[C@H]2CCCC[C@@H]2OCc2ccccc2)c1 [Compound 56] here?
Answer: 0.1 to 1 µM

Question: How did the IC50 turn out when O=C(Cn1nc(C(=O)O)cc1C(=O)N[C@@H]1CCCC[C@@H]1OCc1ccccc1)N[C@H]1CCCC[C@H]1OCc1ccccc1 [Compound 132] was run?
Answer: 0.1 to 1 µM

Question: For O=C(Cn1nc(NS(=O)(=O)c2cccc(Cl)c2)cc1C(=O)N[C@H]1CCCC[C@@H]1OCc1ccccc1)N[C@H]1CCCC[C@@H]1OCc1ccccc1 [Compound 80], which IC50 is on record?
Answer: 0.1 to 1 µM

Question: O=C(Cn1nc(C(=O)c2ccccc2)cc1C(=O)N[C@H]1CCCC[C@@H]1OCc1ccccc1)N[C@H]1CCCC[C@@H]1OCc1ccccc1 [Compound 88] was tested. Which IC50 did it give?
Answer: 0.1 to 1 µM

Question: For O=C(Cn1nc(C(=O)O)cc1C(=O)N[C@H]1CCCC[C@@H]1NCc1ccccc1)N[C@H]1CCCC[C@@H]1OCc1ccccc1 [Compound 120], which IC50 is on record?
Answer: 0.1 to 1 µM

Question: For CC(CCc1ccccc1)NC(=O)c1cc(C(=O)N[C@H]2CCCC[C@@H]2OCc2ccccc2)n(CC(=O)N[C@H]2CCCC[C@@H]2OCc2ccccc2)n1 (stereo partly shown) [Compound 101], which IC50 is on record?
Answer: 0.1 to 1 µM

Question: O=C(Cn1nc(NS(=O)(=O)c2ccc(Cl)c(Cl)c2)cc1C(=O)N[C@H]1CCCC[C@@H]1OCc1ccccc1)N[C@H]1CCCC[C@@H]1OCc1ccccc1 [Compound 61] was tested. Which IC50 did it give?
Answer: 0.1 to 1 µM

Question: For O=C(Cn1nc(C(=O)NCc2cccs2)cc1C(=O)N[C@H]1CCCC[C@@H]1OCc1ccccc1)N[C@H]1CCCC[C@@H]1OCc1ccccc1 [Compound 92], which IC50 is on record?
Answer: 0.1 to 1 µM

Question: O=C(O)CCCCCNC(=O)CCCCCNC(=O)c1cc(C(=O)N[C@H]2CCCC[C@@H]2OCc2ccccc2)n(CC(=O)N[C@H]2CCCC[C@@H]2OCc2ccccc2)n1 [Compound 165] was tested. Which IC50 did it give?
Answer: 0.1 to 1 µM

Question: O=C(Cn1nc(NC(=O)NC2CCCCC2)cc1C(=O)N[C@H]1CCCC[C@@H]1OCc1ccccc1)N[C@H]1CCCC[C@@H]1OCc1ccccc1 [Compound 118] was tested. Which IC50 did it give?
Answer: 0.1 to 1 µM

Question: With O=C(Cn1nc(C(=O)NCC2CC2)cc1C(=O)N[C@H]1CCCC[C@@H]1OCc1ccccc1)N[C@H]1CCCC[C@@H]1OCc1ccccc1 [Compound 100] as the compound, how does the IC50 read?
Answer: 0.1 to 1 µM

Question: With O=C(Cn1nc(C(=O)NC2CCCCC2)cc1C(=O)N[C@H]1CCCC[C@@H]1OCc1ccccc1)N[C@H]1CCCC[C@@H]1OCc1ccccc1 [Compound 83] as the compound, how does the IC50 read?
Answer: 0.1 to 1 µM

Question: Which IC50 does the source give for O=C(Cn1nc(C(=O)NCCc2cccc(Cl)c2)cc1C(=O)N[C@H]1CCCC[C@@H]1OCc1ccccc1)N[C@H]1CCCC[C@@H]1OCc1ccccc1 [Compound 94] here?
Answer: 0.1 to 1 µM

Question: For C=CCNC(=O)c1cc(C(=O)N[C@H]2CCCC[C@@H]2OCc2ccccc2)n(CC(=O)N[C@H]2CCCC[C@@H]2OCc2ccccc2)n1 [Compound 111], which IC50 is on record?
Answer: 0.1 to 1 µM

Question: For CN(Cc1cccc2ccccc12)C(=O)c1cc(C(=O)N[C@H]2CCCC[C@@H]2OCc2ccccc2)n(CC(=O)N[C@H]2CCCC[C@@H]2OCc2ccccc2)n1 [Compound 130], which IC50 is on record?
Answer: 0.1 to 1 µM

Question: Which IC50 does the source give for O=C(Cn1nc(NS(=O)(=O)c2ccc(Br)c(Br)c2)cc1C(=O)N[C@H]1CCCC[C@@H]1OCc1ccccc1)N[C@H]1CCCC[C@@H]1OCc1ccccc1 [Compound 58] here?
Answer: 0.1 to 1 µM

Question: Which IC50 does the source give for Cc1ccc(S(=O)(=O)Nc2cc(C(=O)N[C@H]3CCCC[C@@H]3OCc3ccccc3)n(CC(=O)N[C@H]3CCCC[C@@H]3OCc3ccccc3)n2)cc1 [Compound 106] here?
Answer: 0.1 to 1 µM

Question: Which IC50 does the source give for O=C(Cn1nc(NS(=O)(=O)c2cccc3ccccc23)cc1C(=O)N[C@H]1CCCC[C@@H]1OCc1ccccc1)N[C@H]1CCCC[C@@H]1OCc1ccccc1 [Compound 55] here?
Answer: 0.1 to 1 µM

Question: For COc1ccccc1NC(=O)c1cc(C(=O)N[C@H]2CCCC[C@@H]2OCc2ccccc2)n(CC(=O)N[C@H]2CCCC[C@@H]2OCc2ccccc2)n1 [Compound 73], which IC50 is on record?
Answer: 0.1 to 1 µM

same assay, conditions: Δ21 Activity (IC50 μM), 50 nM NS5B (Δ21), class symbols

Question: O=C(Cn1nc(C(=O)O)cc1C(=O)NC12CC3CC(CC(C3)C1)C2)NC1CCCC[C@@H]1OCc1ccccc1 (stereo partly shown) [Compound 207] was tested. Which IC50 did it give?
Answer: > 1 µM

Question: For O=C(Cn1nc(C(=O)O)cc1C(=O)Nc1cc(Cl)ccc1OCC1CCCCC1)N[C@H]1CCCC[C@@H]1OCc1ccccc1 [Compound 3], which IC50 is on record?
Answer: < 0.05 µM

Question: How did the IC50 turn out when O=C(Cn1nc(-c2nnn[nH]2)cc1C(=O)Nc1ccccc1OCc1ccccc1)N[C@H]1CCCC[C@@H]1OCc1ccccc1 [Compound 25] was run?
Answer: 0.05 to 0.1 µM

Question: O=C(Cn1nc(C(=O)O)cc1C(=O)Nc1ccccc1OCc1ccccc1)N[C@H]1CCCC[C@@H]1OCc1ccccc1 [Compound 39] was tested. Which IC50 did it give?
Answer: 0.05 to 0.1 µM

Question: How did the IC50 turn out when O=C(Cn1nc(C(=O)O)cc1C(=O)Nc1cc(Br)ccc1OCC1CCCCC1)N[C@H]1CCCC[C@@H]1OCc1ccccc1 [Compound 12] was run?
Answer: < 0.05 µM

Question: For O=C(Cn1nc(C(=O)NCCCN2CCCC2=O)cc1C(=O)N[C@H]1CCCC[C@@H]1OCc1ccccc1)N[C@H]1CCCC[C@@H]1OCc1ccccc1 [Compound 168], which IC50 is on record?
Answer: > 1 µM

Question: For O=C(Cn1nc(NS(=O)(=O)c2ccccc2F)cc1C(=O)N[C@H]1CCCC[C@@H]1OCc1ccccc1)N[C@H]1CCCC[C@@H]1OCc1ccccc1 [Compound 37], which IC50 is on record?
Answer: 0.05 to 0.1 µM

Question: COc1ccc(CNC(=O)c2cc(C(=O)N[C@H]3CCCC[C@@H]3OCc3ccccc3)n(CC(=O)N[C@H]3CCCC[C@@H]3OCc3ccccc3)n2)c(OC)c1 [Compound 28] was tested. Which IC50 did it give?
Answer: 0.05 to 0.1 µM

Question: With COc1cccc(NC(=O)c2cc(C(=O)N[C@H]3CCCC[C@@H]3OCc3ccccc3)n(CC(=O)N[C@H]3CCCC[C@@H]3OCc3ccccc3)n2)c1 [Compound 16] as the compound, how does the IC50 read?
Answer: < 0.05 µM

Question: With Cc1ccc(OCC2CCCCC2)c(NC(=O)c2cc(C(=O)NC#N)nn2CC(=O)N[C@H]2CCCC[C@@H]2OCc2ccccc2)c1 [Compound 4] as the compound, how does the IC50 read?
Answer: < 0.05 µM

Question: Which IC50 does the source give for O=C(Cn1nc(NS(=O)(=O)c2cccc(F)c2)cc1C(=O)N[C@H]1CCCC[C@@H]1OCc1ccccc1)N[C@H]1CCCC[C@@H]1OCc1ccccc1 [Compound 31] here?
Answer: 0.05 to 0.1 µM

Question: Which IC50 does the source give for CN(C)C(=O)c1cc(C(=O)N[C@H]2CCCC[C@@H]2OCc2ccccc2)n(CC(=O)NC2CCCC[C@@H]2OCc2ccccc2)n1 (stereo partly shown) [Compound 197] here?
Answer: > 1 µM

Question: Which IC50 does the source give for CCOC(=O)c1cc(C(=O)N[C@H]2CCCC[C@@H]2OCc2ccccc2)n(C(C)C(=O)N[C@H]2CCCC[C@@H]2OCc2ccccc2)n1 (stereo partly shown) [Compound 186] here?
Answer: > 1 µM

Question: For CC(=O)Nc1cc(C(=O)N[C@H]2CCCC[C@@H]2OCc2ccccc2)n(CC(=O)NC2CCCC[C@@H]2OCc2ccccc2)n1 (stereo partly shown) [Compound 196], which IC50 is on record?
Answer: > 1 µM

Question: CCOC(CCCNC(=O)c1cc(C(=O)N[C@H]2CCCC[C@@H]2OCc2ccccc2)n(CC(=O)NC2CCCC[C@@H]2OCc2ccccc2)n1)OCC (stereo partly shown) [Compound 195] was tested. Which IC50 did it give?
Answer: > 1 µM

Question: For CCOCCN(CCOCC)C(=O)c1cc(C(=O)N[C@H]2CCCC[C@@H]2OCc2ccccc2)n(CC(=O)N[C@H]2CCCC[C@@H]2OCc2ccccc2)n1 [Compound 177], which IC50 is on record?
Answer: > 1 µM

Question: For O=C(Cn1nc(C(=O)NC2CCN(Cc3ccccc3)CC2)cc1C(=O)N[C@H]1CCCC[C@@H]1OCc1ccccc1)N[C@H]1CCCC[C@@H]1OCc1ccccc1 [Compound 192], which IC50 is on record?
Answer: > 1 µM

Question: How did the IC50 turn out when N#CNC(=O)c1cc(C(=O)Nc2ccccc2OCc2ccccc2)n(CC(=O)N[C@H]2CCCC[C@@H]2OCc2ccccc2)n1 [Compound 6] was run?
Answer: < 0.05 µM

Question: O=C(Cn1nc(C(=O)NCc2ccc(Cl)cc2)cc1C(=O)N[C@H]1CCCC[C@@H]1OCc1ccccc1)N[C@H]1CCCC[C@@H]1OCc1ccccc1 [Compound 46] was tested. Which IC50 did it give?
Answer: 0.05 to 0.1 µM

Question: How did the IC50 turn out when Cc1ccc(OCn2nc(C)cc2C)c(NC(=O)c2cc(C(=O)O)nn2CC(=O)N[C@H]2CCCC[C@@H]2OCc2ccccc2)c1 [Compound 208] was run?
Answer: > 1 µM

Question: With COc1ccc(CNC(=O)c2cc(C(=O)N[C@H]3CCCC[C@@H]3OCc3ccccc3)n(CC(=O)N[C@H]3CCCC[C@@H]3OCc3ccccc3)n2)cc1 [Compound 40] as the compound, how does the IC50 read?
Answer: 0.05 to 0.1 µM

Question: For CCOC(=O)c1cc(C(=O)N[C@H]2CCCC[C@@H]2OCc2ccccc2)n(CC(=O)Nc2ccc3c(c2)OCO3)n1 [Compound 193], which IC50 is on record?
Answer: > 1 µM

same assay, conditions: Δ21 Activity (IC50 μM), 50 nM NS5B (Δ21), numeric values

Question: For Cc1ccc(OCC2CCCCC2)c(NC(=O)c2cc(C(=O)NC#N)nn2CC(=O)N[C@H]2CCCC[C@@H]2OCc2ccccc2)c1 [drawing 243], which IC50 is on record?
Answer: 0.037 µM

Question: Cc1ccc(OCC2CCCC2)c(NC(=O)c2cc(C(=O)O)nn2CC(=O)N[C@H]2CCCC[C@@H]2OCc2ccccc2)c1 [drawing 241] was tested. Which IC50 did it give?
Answer: 0.023 µM

Question: How did the IC50 turn out when N#CNC(=O)c1cc(C(=O)N[C@H]2CCCC[C@@H]2OCc2ccccc2)n(CC(=O)N[C@H]2CCCC[C@@H]2OCc2ccccc2)n1 [drawing 254] was run?
Answer: 0.042 µM
